Data: US5248677A, “Biogentic amine uptake inhibitors” (priority 1992, dated 1993)
Where a name gives a salt, the structure may show the parent alone.

Tests used:
Format in all cases: biochemical, rat (Male Sprague-Dawley)
dopamine uptake = assay: DA (dopamine) uptake inhibition, synaptosomal preparation (striatum); conditions: rat striatum synaptosomes, 0.1 μM tritiated amine, 37° C., 4 minutes
Description: (§1) For the purpose of identifying compounds as biogenic amine uptake inhibitors capable of interacting with the uptake carrier, ligand-carrier binding assays were carried out as an initial sceen.
(§2) Male Sprague-Dawley derived rats, weighing about 180-250 g each (purchased from Sasco Animal Laboratories, Oregon, Wis.) were sacrificed by decapitation. The brains were immediately removed, placed on a chilled glass plate and dissected according to a modification of the method of Glowinski and Iversen (J. Glowinski and L. L. Iversen, J Neurochem, 1966, 13: 655-669). First, the rhombencephalon was separated by a transverse section and discarded. The rest of the brain was divided into two portions by making another transverse section at the level of the optic chiasma. The hypothalamus, which was used for norepinephrine uptake studies, was removed from the posterior part by using the anterior commissure as the horizontal reference point and a line between the posterior hypothalamus and mammillary bodies as the caudal limit. The striatum, which was used for dopamine uptake studies, was also dissected from the posterior portion using the external wall of the lateral ventricle as the internal limit and the corpus collosum as the external limit. The frontal parts of the striatum were removed from the anterior portion of the cerebrum and combined with the striatal tissue from the posterior segment. The cortex, which was used for serotonin uptake studies, was composed of the rest of the anterior portion of the cerebrum and the cortical surfaces removed from the posterior segment. The hypothalamus and the striatum each weighed about 100 mg or slightly less, whereas the cortex weighed up to 800 mg. The tissues were placed in a cold Potter-Elvehjem glass homogenizer with 5 (cortex) or 10 (hypothalamus) or 20 (striatum) volumes of ice-cold 0.32M sucrose, pH 7, and homogenized by hand. The homogenate was centrifuged (on a Multifuge®, American Scientific Products) at 2500 rpm for 10 minutes in a refrigerated room (~4° C.). The supernatant fraction containing the synaptosomes was decanted, mixed thoroughly and kept on crushed ice for use in the uptake studies.
(§3) Uptake studies were conducted according to the method of Snyder and Coyle (S. H. Snyder and J. T. Coyle, J Pharmacol Exp Ther, 1969, 165: 78-86) with minor modifications. Usually a 0.1 mL aliquot of the synaptosomal preparation was incubated in a mixture of 0.75 mL of modified Krebs-Ringerbuffer, 0.05 mL of the drug being tested, and 0.1 mL of a 1 μM solution of the labeled (tritiated) amine (final concentration 0.1 μM), for a total volume of 1 mL. The modified Krebs-Ringer bicarbonate buffer used in these studies contained 118 mM sodium chloride, 4 mM potassium chloride, 1.3 mM calcium chloride, 1.12 mM potassium dihydrogen phosphate, 1.2 mM magnesium sulfate and 24 mM sodium bicarbonate, with the addition of 5 mM glucose, 0.15 mM disodium EDTA, 12.5 μM nialamide and 1 mM ascorbic acid. Uptake was initiated by the addition of the tritiated amine and the mixture was incubated at 37° C. in a Dubnoff Metabolic Shaking Incubator for 4 minutes. A preincubation period was not included since it had been reported that results were similar with and without preincubation of the synaptosomal preparation (G. Vosmer, et al. Biochem Pharmacol, 1980, 24: 2557-2562). Control incubations without the test drug were conducted at 37° C. to determine total uptake and at 0° C. (in a crushed ice bath) to correct for the diffusion of the tritiated amine into the synaptosomes and/or binding.
(§4) Filtration was used to terminate uptake and collect the synaptosomes (C. A. Csernansky, et al. J Pharmacol Methods, 1985, 13: 187-191). In the filtration technique, the incubation mixture was diluted with ice-cold 0.9% aqueous sodium chloride solution and filtered through GF/B glass microfiber filters (Whatman) under reduced pressure. […]

5-HT (serotonin) uptake = 5-HT (serotonin) uptake inhibition, synaptosomal preparation (cortex); conditions: 5-hydroxytryptamine, rat cortex synaptosomes, 0.1 μM tritiated amine, 37° C., 4 minutes
Description: as §1, §2, §3, §4

norepinephrine uptake = assay: NE (norepinephrine) uptake inhibition, synaptosomal preparation (hypothalamus); conditions: rat hypothalamus synaptosomes, 0.1 μM tritiated amine, 37° C., 4 minutes
Description: as §1, §2, §3, §4

Compound | IC50 (dopamine uptake) [µM] | IC50 (5-HT (serotonin) uptake) [µM] | IC50 (norepinephrine uptake) [µM] | IC50 (dopamine uptake; hydrochloride) [µM] | IC50 (5-HT (serotonin) uptake; hydrochloride) [µM] | IC50 (norepinephrine uptake; hydrochloride) [µM]
COc1cccc2c1CCC1C(Cc3ccccc3)NCC21 (stereo not drawn) [Example 21, cis-2,3,3a,4,5,9b-Hexahydro-6-methoxy-3-phenylmethyl-1H-benz[e]isoindole methanesulfonic acid salt] | 5.49 | 13.1 | 0.758 |  |  | 
COc1cccc2c1CCC1C2CN(C)C1Cc1ccccc1 (stereo not drawn) [Example 22, cis-2,3,3a,4,5,9 b-Hexahydro-6-methoxy-2-methyl-3-phenylmethyl-1H-benz[e]isoindole methanesulfonic acid salt] | 0.368 | 3.44 | 0.06 |  |  | 
CCN1CC2c3cccc(OC)c3CCC2C1Cc1ccccc1 (stereo not drawn) [Example 23, cis-2-Ethyl-2,3,3a,4,5,9 b-hexahydro-6-methoxy-3-phenylmethyl-1H-benz[e]isoindole methanesulfonic acid salt] | 0.141 | 1.43 | 0.028 |  |  | 
COc1cccc2c1CCC1C2CN(C)C1Cc1cccc(F)c1 (stereo not drawn) [Example 24, cis-3-(3-Fluorophenyl)methyl-2,3,3a,4,5,9b-hexahydro-6-methoxy-2-methyl-1H-benz[e]isoindole hydrochloride] | 0.17 | 2.47 | 0.104 |  |  | 
CCN1CC2c3cccc(OC)c3CCC2C1Cc1cccc(F)c1 (stereo not drawn) [Example 25, cis-2-Ethyl-3-(3-fluorophenyl)methyl-2,3,3a,4,5,9b-hexahydro-6-methoxy-1H-benz[e]isoindole hydrochloride] | 0.197 | 1.9 | 0.027 |  |  | 
COc1ccc2c(c1)CCC1C(Cc3cccc(F)c3)NCC21 (stereo not drawn) [Example 26, trans-3-(3-Fluorophenyl)methyl-2,3,3a,4,5,9b-hexahydro-7-methoxy-1H-benz[e]isoindole hydrochloride] | 9.04 | 2.25 | 0.603 |  |  | 
COc1ccc2c(c1)CCC1C2CN(C)C1Cc1cccc(F)c1 (stereo not drawn) [Example 27, trans-3-(3-Fluorophenyl)methyl-2,3,3a,4,5,9b-hexahydro-7-methoxy-2-methyl-1H-benz[e]isoindole hydrochloride] |  |  | 0.189 | 4.59 | 2.08 | 
COc1ccc2c(c1)CCC1C2CN(C)C1Cc1cccc(F)c1 (stereo not drawn) [Example 28, cis-3-(3-Fluorophenyl)methyl-2,3,3a,4,5,9b-hexahydro-7-methoxy-2-methyl-1H-benz[e]isoindole hydrochloride] |  |  |  | 0.213 | 1.87 | 0.078
COc1ccc2c(c1OC)CCC1C(Cc3ccccc3)NCC21 (stereo not drawn) [Example 31, hydrochloride] | 5.42 | 14 | 0.592 |  |  | 
COc1ccc2c(c1OC)CCC1C2CN(C)C1Cc1ccccc1 (stereo not drawn) [Example 32, cis-6,7-Dimethoxy-2,3,3a,4,5,9b-hexahydro-2-methyl-3-phenylmethyl-1H-benz[e]isoindole hydrochloride] | 0.169 | 12.7 | 0.113 |  |  | 
CN1CC2c3ccc4c(c3CCC2C1Cc1cccc(F)c1)OCO4 (stereo not drawn) [Example 36, trans-3-(3-Fluorophenyl)methyl-2,3,3a,4,5,9b-hexahydro-2-methyl-6,7-methylenedioxy-1H-benz[e]isoindole methanesulfonic acid salt] | 0.952 | 0.964 | 0.062 |  |  | 
COc1ccc(C)c2c1CCC1C2CN(C)C1Cc1ccccc1 (stereo not drawn) [Example 38, cis-2,9-Dimethyl-2,3,3a,4,5,9b-hexahydro-6-methoxy-3-phenylmethyl-1H-benz[e]isoindole hydrochloride] | 1.33 | 3.57 | 0.261 |  |  | 
COc1ccc2c(c1)CCC1CC(Cc3ccccc3)N(C)CC21 (stereo not drawn) [Example 72, cis-8-Methoxy-2-methyl-1,2,3,4,4a,5,6,10b-octahydro-3-phenylmethyl-benz[f]isoquinoline hydrochloride] | 1.01 | 5.75 | 0.064 |  |  | 
